We go through 17 compounds from publication PMC6222691, “Isoxazolidine Conjugates of N3-Substituted 6-Bromoquinazolinones—Synthesis, Anti-Varizella-Zoster Virus, and Anti-Cytomegalovirus Activity” (Molecules : A Journal of Synthetic Chemistry and Natural …, 2018).

The test system of series [1] is PI4KIIIα. Also on record: method as in PMID 23944386. The following applies: cited from earlier work.
Series [2] has as its system TK+ VZV Strain (OKA). In words: microbe, parasite or virus in culture. It counts as cell-based, varicella-zoster virus. The following applies: Human alphaherpesvirus 3, HEL, read-out: Antiviral Activity EC50 TK+ VZV Strain (OKA).
Series [3] relates to TK− VZV Strain (07-1). In words: microbe, parasite or virus in culture. It counts as cell-based, varicella-zoster virus. The note with it: Human alphaherpesvirus 3, HEL, read-out: Antiviral Activity EC50 TK− VZV Strain (07-1).
Series [4] concerns human cytomegalovirus AD-169 Strain. The series is described as follows: Antiviral activity against human cytomegalovirus AD-169 strain in HEL cell cultures. It counts as cell-based.
Series [5] relates to human cytomegalovirus Davis Strain. In words: Antiviral activity against human cytomegalovirus Davis strain in HEL cell cultures. The format is cell-based.
For series [6], the system named is murine leukemia (L1210). The series is described as follows: Inhibition of proliferation of murine leukemia L1210 cells. It counts as cell-based. The following applies: Mus musculus, L1210, 48 h, read-out: IC50 L1210.
The test system of series [7] is human T-lymphocyte (CEM). The series is described as follows: Inhibition of proliferation of human T-lymphocyte CEM cells. It counts as cell-based. The note with it: 72 h, read-out: IC50 CEM.
Series [8] concerns human cervix carcinoma (HeLa). In words: Inhibition of proliferation of human cervix carcinoma HeLa cells. The following applies: 96 h, read-out: IC50 HeLa. It counts as cell-based.
The subject of series [9] is immortalized human dermal microvascular endothelial cells (HMEC-1). The series is described as follows: Inhibition of proliferation of HMEC-1 cells. The format is cell-based. The following applies: HMEC-1, read-out: IC50 HMEC-1.
The subject of series [10] is a wide variety of DNA and RNA viruses. In words: Antiviral screening against a wide variety of DNA and RNA viruses. It counts as cell-based.
The test system of series [11] is L1210, CEM, HeLa, HMEC-1 cell lines. The series is described as follows: Cytostatic activity against the tested cell lines. It counts as cell-based.
For series [12], the system named is HEL cells. The following applies: minimum cytotoxic concentration.
A short description of series [13]: in vitro. The following applies: human.
In series [14] the test system is human cytomegalovirus (HCMV). The series is described as follows: Antiviral activity against HCMV, AD-169 and Davis strains (text summaries). It counts as cell-based. The following applies: Human betaherpesvirus 5, AD169; HEL cells; both AD-169 and Davis strains; read-out: EC50 against HCMV (range over AD-169 and Davis strains).
In series [15] the test system is herpes simplex virus 1 (HSV-1). Set-up: method as in PMID 21969760. The following applies: cited from earlier work.
For series [16], the system named is herpes simplex virus 2 (HSV-2). Set-up: method as in PMID 21969760. The note with it: cited from earlier work.
Series [17] concerns vaccinia virus (VACV). The note with it: cited from earlier work.
Series [18] concerns vaccinia virus. The note with it: E6SM cell cultures; cited from earlier work.
Series [19] deals with tobacco mosaic virus (TMV). Set-up: method as in PMID 18259148. The following applies: in vivo; cited from earlier work.
Series [20] deals with influenza A virus (H5N1). The following applies: cited from earlier work.
Where [21] appears, read: Human betaherpesvirus 5, AD169, HEL; read-out: Antiviral Activity EC50 AD-169 Strain.
[22] abbreviates: Human betaherpesvirus 5, HEL; read-out: Antiviral Activity EC50 Davis Strain.

Values after ≈ are worked out from the molar mass of the structure shown. Where two headings read alike, the source gives them in different places.

Take `COc1ncc(-c2ccc3nc(N)n(-c4ccccc4C(F)(F)F)c(=O)c3c2)cc1S(=O)(=O)Nc1ccc(F)cc1F` (atropisomer, axis not shown; (aS)) [(aS)-9]: in series [1], the “pIC50 PI4KIIIα” value is 8.3.

With `CCOP(=O)(OCC)[C@H]1C[C@@H](c2nc3ccc(Br)cc3c(=O)[nH]2)ON1C` (relative stereo) [cis-11a, Diethyl cis-[5-(6-bromo-4-oxo-3,4-dihydroquinazolin-2-yl)-2-methylisoxazolidin-3-yl]phosphonate], the EC50 (as a rule, the concentration that produces a half-maximal response) in series [2] was more than 100 µM; in [3], more than 100 µM; in [4] (setting [21]) it was more than 100 µM; in series [5] (setting [22]), 100 µM. Besides, the IC50 (commonly the concentration needed to halve the response being measured) was more than 250 µM in series [6], 242 ± 7 µM in [7], more than 250 µM in series [8] and 140 ± 54 µM in series [9]. In series [10], the “Activity against tested viruses (in words)” value (“Activity” for short) is “not active”. For the same compound, the “Inhibition of proliferation of the tested cell lines (in words)” value (from here on “Inhibition of proliferation … (in words)”) in series [11] is listed as “did not inhibit proliferation”. In addition, the “Cytotoxicity Cell Morphology MCC” value in [12] (Table 2 (VZV experiments)) is on record as more than 100 μM; in series [12] (Table 3 (HCMV experiments)) it was 20 μM.

As for `CCOP(=O)(OCC)[C@H]1C[C@H](c2nc3ccc(Br)cc3c(=O)[nH]2)ON1C` (relative stereo) [trans-11a, Diethyl trans-[5-(6-bromo-4-oxo-3,4-dihydroquinazolin-2-yl)-2-methylisoxazolidin-3-yl]phosphonate], the EC50 in series [2] is more than 100 µM; in [3], 66.9 µM; in series [4] (setting [21]), more than 100 µM; in series [5] (setting [22]), more than 100 µM. The IC50 in [6] was 126 ± 19 µM; in [7], 148 ± 2 µM; in [8] it was 196 ± 20 µM; in [9], 85 ± 13 µM. In addition, the “Activity” value in [10] is recorded as “not active”. The “Inhibition of proliferation … (in words)” value in [11] is reported as “did not inhibit proliferation”. The “Cytotoxicity Cell Morphology MCC” value in [12] (Table 2 (VZV experiments)) is on record as more than 100 μM; in series [12] (Table 3 (HCMV experiments)) it was 100 μM.

Take `CCOP(=O)(OCC)[C@H]1C[C@H](c2nc3ccc(Br)cc3c(=O)n2Cc2ccc([N+](=O)[O-])cc2)ON1C` (relative stereo) [trans-11e, Diethyl trans-{5-[6-bromo-3-(4-nitrobenzyl)-4-oxo-3,4-dihydroquinazolin-2-yl]-2-methylisoxazolidin-3-yl}phosphonate]: the EC50 in [2] is 6.84 µM; in series [3], 7.51 µM; in [4] (setting [21]) it was more than 20 µM; in series [5] (setting [22]), more than 20 µM. Further, the IC50 was 18 µM in [6], 17 ± 12 µM in series [7], 24 ± 9 µM in [8] and 26 ± 6 µM in [9]. Besides, the “Cytotoxicity Cell Morphology MCC” value is recorded as 20 μM in series [12] (Table 2 (VZV experiments)) and 100 μM in series [12] (Table 3 (HCMV experiments)).

As to `CCOP(=O)(OCC)[C@H]1C[C@H](c2nc3ccc(Br)cc3c(=O)n2C)ON1C` (relative stereo) [trans-11j, Diethyl trans-{5-[6-bromo-3-methyl-4-oxo-3,4-dihydroquinazolin-2-yl]-2-methylisoxazolidin-3-yl}phosphonate], the EC50 in series [2] was more than 4 µM; in series [3], more than 4 µM; in series [4] (setting [21]), more than 20 µM; in series [5] (setting [22]), more than 100 µM. The IC50 in [6] is 138 ± 19 µM; in [7] it was 128 ± 21 µM; in series [8] it was 175 ± 105 µM; in [9], more than 250 µM. In series [10], the “Activity” value was “not active”. For the same compound, the “Inhibition of proliferation … (in words)” value in [11] was “did not inhibit proliferation”. The “Cytotoxicity Cell Morphology MCC” value in series [12] (Table 2 (VZV experiments)) and in [12] (Table 3 (HCMV experiments)) was 20 μM in each case.

Regarding `CCOP(=O)(OCC)[C@H]1C[C@H](c2nc3ccc(Br)cc3c(=O)n2CC)ON1C` (relative stereo) [trans-11k, Diethyl trans-{5-[6-bromo-3-ethyl-4-oxo-3,4-dihydroquinazolin-2-yl]-2-methylisoxazolidin-3-yl}phosphonate], the concentration giving a half-maximal response (EC50) in series [2] was more than 20 µM; in series [3], more than 20 µM; in series [4] (setting [21]), more than 20 µM; in [5] (setting [22]), 44.7 µM. In addition, the “Activity” value in series [10] is “not active”. Besides, the “Inhibition of proliferation … (in words)” value in [11] is reported as “did not inhibit proliferation”. The “Cytotoxicity Cell Morphology MCC” value was 100 μM in [12] (Table 2 (VZV experiments)) and 20 μM in [12] (Table 3 (HCMV experiments)).

Regarding `O=c1[nH]cc(F)c(=O)[nH]1` [5-Fluorouracil, reference compound], the IC50 in series [6] (cell proliferation, two days) came to 0.33 ± 0.17 µM; in series [7] (cell proliferation, three days), 18 ± 5 µM; in series [8] (cell proliferation, four days), 0.54 ± 0.12 µM.

In series [13], `Nc1nc2c(ncn2COCCO)c(=O)[nH]1` [Acyclovir] showed a CC50 of more than 350 µM.

For `O=c1[nH]c(=O)n([C@H]2C[C@H](O)[C@@H](CO)O2)cc1/C=C/Br` [Brivudin, reference compound], the figures for the EC50 in series [2] and in series [3] were 0.023 ± 0.008 µM and 31.9 ± 16.1 µM, respectively. The “Cytotoxicity Cell Morphology MCC” value in series [12] (Table 2 (VZV experiments)) is more than 300 μM. The same compound yielded a CC50 in series [13] of more than 300 µM.

`Nc1ccn(C[C@@H](CO)OCP(=O)(O)O)c(=O)n1` [Cidofovir, reference compound]: the EC50 in series [4] (setting [21]) was 1.5 ± 0.2 µM; in [5] (setting [22]), 1.7 ± 0.4 µM; in [14] it was 1.5 to 1.7 µM. Moreover, in series [12] (Table 3 (HCMV experiments)), the “Cytotoxicity Cell Morphology MCC” value is more than 300 μM. Besides, the CC50 in [13] is more than 300 µM.

Regarding `Nc1nc(O)c2ncn(COC(CO)CO)c2n1` [Ganciclovir, reference compound], the EC50 in [4] (Human betaherpesvirus 5, AD169, HEL, read-out: Antiviral Activity EC50 AD-169 Strain) came to 16.9 ± 6.9 µM; in series [5] (Human betaherpesvirus 5, HEL, read-out: Antiviral Activity EC50 Davis Strain), 7.7 ± 0.9 µM. Besides, the “Cytotoxicity Cell Morphology MCC” value in series [12] (Table 3 (HCMV experiments)) was more than 350 μM. In addition, in [13], the CC50 is more than 350 µM.

Consider `O=C(O)c1cc(Br)ccc1-n1c(-c2ccccc2)nc2ccc(Br)cc2c1=O` [compound 1, 5-bromo-2-(6-bromo-4-oxo-2-phenyl-4H-quinazolin-3-yl)-benzoic acid], for which the “EC50 HSV-1” value in series [15] was 12 µg/mL (≈ 24 µM). Besides, in series [16], the “EC50 HSV-2” value was 12 µg/mL (≈ 24 µM). The “EC50 vaccinia virus (VACV)” value in series [17] is 12 µg/mL (≈ 24 µM).

Turning to `CCc1nc(-n2c(-c3ccccc3)nc3ccc(Br)cc3c2=O)nc(N)c1-c1ccc(Cl)cc1` [compound 2], in [18], the MIC vaccinia virus is 1.92 µg/mL (≈ 3.6 µM).

As to `Cc1nc2ccc(Br)cc2c(=O)n1/N=C/c1ccccc1C(F)(F)F` [compound 3, 2-methyl-3-(substituted-benzalamino)-4(3H)-quinazolinone], the “curative effects against TMV” value in series [19] is given as 54%.

In the case of `Cc1ccc(C(=O)/C=C/c2nc3ccc(I)cc3c(=O)n2-c2cccc(C(F)(F)F)c2)cc1` [compound 4], the “inhibition rate against H5N1” value in [20] was 38%.

For the compound `CCNC(=S)N/N=C/c1nc2ccc(I)cc2c(=O)n1-c1cccc(C(F)(F)F)c1` [compound 5], the “inhibition rate against H5N1” value in series [20] was 47%.

In the case of `O=C(N/N=C/c1nc2ccc(I)cc2c(=O)n1-c1cccc(C(F)(F)F)c1)c1ccncc1` [compound 6], in series [20], the “inhibition rate against H5N1” value is 25%.
